Data on 15 compounds can be found in patent US20220143053A1, “ANTI-MICROBIAL METHODS AND MATERIALS” (priority 2019, published 2022).

Series [1] can be described thus: Drug solubility limit in growth medium. The class given is physicochemical. The settings on record: plasma or biological fluid.
The subject of series [2] is methicillin-sensitive S. aureus. The settings on record: cited from earlier work.
Series [3] concerns methicillin-sensitive Staphylococcus aureus (MSSA, ATCC 12600). In words: Minimum inhibitory concentration (MIC) test, CLSI M07-A10. The class given is cell-based. As to the method: (§1) Antibacterial activity of sodium channel blockers (lidocaine, bupivacaine, tetracaine, procaine, prilocaine), NSAIDs (ketorolac and tolfenamic acid), antioxidants (resveratrol and curcumin), and antibiotics (gentamicin and vancomycin) was performed against methicillin-sensitive Staphylococcus aureus (MSSA, ATCC 12600). The bacterial susceptibility tests were conducted as outlined in the Clinical and Laboratory Standard Institute (CLSI) protocol M07-A10. Bacterial suspensions with a concentration of approximately 5*10^5 CFU/ml were prepared in Lysogeny broth and mixed with the tested drugs. […] Minimum bactericidal concentration (MBC) was determined as the minimum concentration of the tested drug needed to kill 99.9% of bacteria (or 3−log 10 reduction). […] The MBC was measured for lidocaine, bupivacaine, ketorolac, and gentamicin.

For series [4], the system named is Bacillus cereus, MSSA, MRSA, Escherichia coli, Klebsiella pneumoniae, Pseudomonas aeruginosa, Enterobacter aerogenes, and Salmonella Choleraesuis. The conditions noted are these: eight listed bacteria; cited from earlier work.
For series [5] the following is noted: systemic administration; cited from earlier work.
The subject of series [6] is methicillin-sensitive Staphylococcus aureus (MSSA, ATCC 12600). Description: Minimum bactericidal concentration (MBC) test. Format: cell-based. The settings on record: MSSA ATCC 12600, kill 99.9% of bacteria. Here is the method:
as §1

Another series has as its system MSSA (ATCC 14775). In words: Time-kill experiments. Format: cell-based, Staphylococcus aureus. The conditions noted are these: between 4 and 24 h. As to the method: Time-kill curves employing 3 time-points (0, 4, 24 hours) over the period of 24 hours were obtained for characterization of the antibacterial activity of selected combinations against MSSA (ATCC® 14775). Tested combinations of drugs were incubated with 5*10^5 CFU/ml of bacteria in Lysogeny broth at 37° C. At a given time-point, aliquots were collected, and bacterial concentrations were determined using the spread-plate method. The minimum accurately countable concentration was 10^2 CFU/ml. […] The increase of bacterial concentration represented antagonism.

Where [7] appears, read: Staphylococcus aureus, MSSA ATCC 12600, Lysogeny broth, 24-hour incubation at 37° C., read-out: MIC.

≈ marks a conversion by molar mass, not a printed value. Where two headings read alike, the source gives them in different places.

As a reminder, the solubility is the concentration that dissolves in the medium under given conditions. A higher solubility goes with a readily soluble substance. In general, MIC refers to the smallest concentration in the dilution series that meets the test's criterion for growth inhibition. For `CCCCN1CCCCC1C(=O)Nc1c(C)cccc1C` (stereo not shown) [Bupivacaine], the solubility in series [1] is roughly 15 mg/mL (≈ 52 mM). For the same compound, the antibacterial effects result in series [2] is reported as “measurable antibacterial effects”. Also, the MIC in series [3] (setting [7]) is 1880 µg/mL (≈ 6.5 mM).

With `COc1cc(/C=C/C(=O)CC(=O)/C=C/c2ccc(O)c(OC)c2)ccc1O` [Curcumin], the MIC in series [3] (setting [7]) is 188 µg/mL (≈ 0.509 mM).

In the case of `CC(C)Cc1ccc(C(C)C(=O)O)cc1` (stereo not shown) [Ibuprofen], the antibacterial activity result in series [4] was “measurable antibacterial activity”.

Compound `O=C(c1ccccc1)c1ccc2n1CCC2C(=O)O` (stereo not shown) [Ketorolac] had a solubility in series [1] of roughly 18 mg/mL (≈ 70.5 mM). For the same compound, the MIC in series [3] (setting [7]) stood at 3120 µg/mL (≈ 12.2 mM).

As to `CCN(CC)CC(=O)Nc1c(C)cccc1C` [Lidocaine], the antibacterial effects result in series [2] was “measurable antibacterial effects”. In series [3] (setting [7]), the MIC is 15600 µg/mL (≈ 66.7 mM).

For `CCCNC(C)C(=O)Nc1ccccc1C` (stereo not shown) [Prilocaine], the minimal inhibitory concentration (MIC) in series [3] (setting [7]) amounted to 25000 µg/mL (≈ 113 mM).

`CCN(CC)CCOC(=O)c1ccc(N)cc1` [Procaine]: the minimal inhibitory concentration (MIC) in series [3] (setting [7]) is 100000 µg/mL (≈ 423 mM).

As to `Oc1ccc(C=Cc2cc(O)cc(O)c2)cc1` [Resveratrol], in series [3] (setting [7]), the MIC was determined as 125 µg/mL (≈ 0.548 mM).

As for `CCCCNc1ccc(C(=O)OCCN(C)C)cc1` [Tetracaine], in series [3] (setting [7]), the minimum inhibitory concentration (MIC) was 938 µg/mL (≈ 3.55 mM).

As for `Cc1c(Cl)cccc1Nc1ccccc1C(=O)O` [Tolfenamic Acid], in series [3] (setting [7]), the MIC was found to be 250 µg/mL (≈ 0.955 mM).

For `CN[C@H](CC(C)C)C(=O)N[C@H]1C(=O)N[C@@H](CC(N)=O)C(=O)N[C@H]2C(=O)N[C@H]3C(=O)N[C@H](C(=O)N[C@H](C(=O)O)c4cc(O)cc(O)c4-c4cc3ccc4O)[C@H](O)c3ccc(c(Cl)c3)Oc3cc2cc(c3O[C@@H]2O[C@H](CO)[C@@H](O)[C@H](O)[C@H]2O[C@H]2C[C@](C)(N)[C@H](O)[C@H](C)O2)Oc2ccc(cc2Cl)[C@H]1O` [Vancomycin], the “concentration in the bone relative to that in the serum” value in series [5] was roughly 20%. This compound displayed an MIC in series [3] (Staphylococcus aureus, 24 h) of 0.625 µg/mL (≈ 0.000431 mM).

In the case of `CC(=O)Oc1ccccc1C(=O)O` [aspirin], the antibacterial activity entry in series [4] was “measurable antibacterial activity”.

With `O=C(O)Cc1ccccc1Nc1c(Cl)cccc1Cl` [diclofenac], in series [4], the antibacterial activity entry is given as “measurable antibacterial activity”.

Take `Cc1cccc(Nc2ccccc2C(=O)O)c1C` [mefenamic acid]: the antibacterial activity entry in series [4] is recorded as “measurable antibacterial activity”.

A word on the MBC: it is the smallest concentration meeting the test's criterion for killing. As for Gentamicin, in series [6], the MBC was 2 µg/mL. The “regrowth in time-kill curves” value in the series on MSSA (ATCC 14775) was “regrowth phase”. Moreover, the MIC in series [3] (MSSA ATCC 12600, Lysogeny broth, 24-hour incubation at 37° C.) is 4 µg/mL.
